Results: ChEMBL document CHEMBL1275440, “In vitro activity of telavancin against resistant gram-positive bacteria” (2008)
In brackets after ≈: the same amount, converted by molar mass. Activity calls are given as the source filed them. The calls are words filed in the database; no cut-off is given here.

Legend:
Enterococcus faecalis [1] = assay: Antibacterial activity against Enterococcus faecalis ATCC 51575 assessed as bacterial count at 4 ug/ml after 24 hrs by time-kill assay; type: functional
Staphylococcus aureus [2] = assay: Antibacterial activity against methicillin resistant Staphylococcus aureus MED 1805 bloodstream isolate by broth microdilution method; type: functional
Staphylococcus aureus [3] = assay: Antibacterial activity against methicillin resistant Staphylococcus aureus MED 1805 bloodstream isolate assessed as bacterial count at 2 ug/ml after 24 hrs by time-kill assay; type: functional
Enterococcus faecalis [4] = assay: Antibacterial activity against Enterococcus faecalis ATCC 51575 assessed as bacterial count at 8 ug/ml after 2 hrs by time-kill assay; type: functional
Staphylococcus aureus [5] = assay: Antibacterial activity against methicillin resistant Staphylococcus aureus MED 2028 osteomyelitis isolate assessed as bacterial count at 16 ug/ml after 8 hrs by time-kill assay; type: functional
Streptococcus viridans = assay: Antibacterial activity against Streptococcus viridans clinical isolate by broth microdilution method; type: functional
Streptococcus agalactiae [6] = assay: Antibacterial activity against Streptococcus agalactiae MED 2038 assessed as bacterial count at 2 ug/ml after 24 hrs by time-kill assay; type: functional
Streptococcus pyogenes [7] = assay: Antibacterial activity against Streptococcus pyogenes MED 2040 assessed as bacterial count at 0.5 ug/ml after 24 hrs by time-kill assay; type: functional
Streptococcus agalactiae [8] = assay: Antibacterial activity against Streptococcus agalactiae MED 2038 assessed as bacterial count at 8 ug/ml after 8 hrs by time-kill assay; type: functional
Streptococcus agalactiae [9] = assay: Antibacterial activity against Streptococcus agalactiae MED 2038 assessed as bacterial count at 8 ug/ml after 24 hrs by time-kill assay; type: functional
Staphylococcus aureus [10] = assay: Antibacterial activity against methicillin resistant Staphylococcus aureus MED 2028 osteomyelitis isolate assessed as bacterial count at 1 ug/ml after 2 hrs by time-kill assay; type: functional
Streptococcus agalactiae [11] = assay: Antibacterial activity against Streptococcus agalactiae group B clinical isolate by broth microdilution method; type: functional
Streptococcus agalactiae [12] = assay: Antibacterial activity against Streptococcus agalactiae MED 2038 assessed as bacterial count at 2 ug/ml after 8 hrs by time-kill assay; type: functional
Streptococcus pneumoniae [13] = assay: Antibacterial activity against multidrug resistant Streptococcus pneumoniae MED 1090 assessed as bacterial count at […] after 24 hrs by time-kill assay; type: functional
Enterococcus faecalis [14] = assay: Antibacterial activity against Enterococcus faecalis ATCC 51575 assessed as bacterial count at 2 ug/ml after 2 hrs by time-kill assay; type: functional
Staphylococcus aureus [15] = assay: Antibacterial activity against methicillin resistant Staphylococcus aureus MED 2028 osteomyelitis isolate assessed as bacterial count at 16 ug/ml after 24 hr by time-kill assay; type: functional
Streptococcus pneumoniae [16] = assay: Antibacterial activity against multidrug resistant Streptococcus pneumoniae MED 1090 assessed as bacterial count at 0.06 ug/ml after 8 hrs by time-kill assay; type: functional
Enterococcus faecalis [17] = assay: Antibacterial activity against Enterococcus faecalis ATCC 51575 assessed as bacterial count at 8 ug/ml after 24 hrs by time-kill assay; type: functional
Staphylococcus aureus [18] = assay: Antibacterial activity against methicillin resistant Staphylococcus aureus MED 2028 osteomyelitis isolate assessed as bacterial count at 16 ug/ml after 4 hrs by time-kill assay; type: functional
Staphylococcus aureus [19] = assay: Antibacterial activity against methicillin resistant Staphylococcus aureus MED 2028 osteomyelitis isolate assessed as bacterial count at 8 ug/ml after 24 hrs by time-kill assay; type: functional
[20] = system: Staphylococcus epidermidis; assay: Antibacterial activity against methicillin resistant Staphylococcus epidermidis clinical isolate by broth microdilution method; type: functional
Streptococcus pyogenes [21] = assay: Antibacterial activity against Streptococcus pyogenes MED 2040 assessed as bacterial count at […] after 24 hrs by time-kill assay; type: functional
Staphylococcus aureus [22] = assay: Antibacterial activity against methicillin resistant Staphylococcus aureus MED 2028 osteomyelitis isolate assessed as bacterial count at 4 ug/ml after 2 hrs by time-kill assay; type: functional
[23] = system: Staphylococcus epidermidis; assay: Antibacterial activity against methicillin resistant Staphylococcus epidermidis ATCC 35984 assessed as bacterial count at 16 ug/ml after 24 hrs by time-kill assay; type: functional
Staphylococcus aureus [24] = assay: Antibacterial activity against methicillin resistant Staphylococcus aureus MED 1805 bloodstream isolate assessed as bacterial count at 2 ug/ml after 8 hrs by time-kill assay; type: functional
Streptococcus pyogenes [25] = assay: Antibacterial activity against Streptococcus pyogenes MED 2040 assessed as bacterial count at 2 ug/ml after 8 hrs by time-kill assay; type: functional
Staphylococcus aureus [26] = assay: Antibacterial activity against methicillin resistant Staphylococcus aureus MED 1805 bloodstream isolate assessed as bacterial count at 4 ug/ml after 4 hrs by time-kill assay; type: functional
[27] = system: Staphylococcus auricularis; assay: Antibacterial activity against methicillin resistant coagulase-negative Staphylococcus auricularis clinical isolate by broth microdilution method; type: functional
Streptococcus pneumoniae [28] = assay: Antibacterial activity against multidrug resistant Streptococcus pneumoniae MED 1090 assessed as bacterial count at 0.06 ug/ml after 4 hrs by time-kill assay; type: functional
Streptococcus pneumoniae [29] = assay: Antibacterial activity against multidrug resistant Streptococcus pneumoniae MED 1090 assessed as bacterial count at […] after 2 hrs by time-kill assay; type: functional
Streptococcus pyogenes [30] = assay: Antibacterial activity against Streptococcus pyogenes MED 2040 assessed as bacterial count at 8 ug/ml after 2 hrs by time-kill assay; type: functional
[31] = system: Staphylococcus epidermidis; assay: Antibacterial activity against methicillin resistant Staphylococcus epidermidis ATCC 35984 assessed as bacterial count at 2 ug/ml after 8 hrs by time-kill assay; type: functional
Staphylococcus aureus [32] = assay: Antibacterial activity against methicillin resistant Staphylococcus aureus MED 2028 osteomyelitis isolate assessed as bacterial count at 8 ug/ml after 2 hrs by time-kill assay; type: functional
Streptococcus pneumoniae [33] = assay: Antibacterial activity against multidrug resistant Streptococcus pneumoniae MED 1090 assessed as bacterial count at […] after 4 hrs by time-kill assay; type: functional
Enterococcus faecalis [34] = system: Enterococcus faecalis
Staphylococcus aureus [35] = assay: Antibacterial activity against methicillin resistant Staphylococcus aureus MED 1805 bloodstream isolate assessed as bacterial count at 4 ug/ml after 2 hrs by time-kill assay; type: functional
Streptococcus pneumoniae [36] = assay: Antibacterial activity against multidrug resistant Streptococcus pneumoniae MED 1090 assessed as bacterial count at 8 ug/ml after 24 hrs by time-kill assay; type: functional
Streptococcus agalactiae [37] = assay: Antibacterial activity against Streptococcus agalactiae MED 2038 assessed as bacterial count at […] after 24 hrs by time-kill assay; type: functional
Streptococcus agalactiae [38] = assay: Antibacterial activity against Streptococcus agalactiae MED 2038 assessed as bacterial count at […] after 2 hrs by time-kill assay; type: functional
Staphylococcus aureus [39] = assay: Antibacterial activity against methicillin resistant Staphylococcus aureus MED 2028 osteomyelitis isolate assessed as bacterial count at 2 ug/ml after 8 hrs by time-kill assay; type: functional
[40] = system: Staphylococcus epidermidis; assay: Antibacterial activity against methicillin resistant Staphylococcus epidermidis ATCC 35984 assessed as bacterial count at 8 ug/ml after 4 hrs by time-kill assay; type: functional
Staphylococcus aureus [41] = assay: Antibacterial activity against methicillin resistant Staphylococcus aureus MED 2028 osteomyelitis isolate assessed as bacterial count at 16 ug/ml after 2 hrs by time-kill assay; type: functional
Enterococcus faecium = assay: Antibacterial activity against vancomycin resistant Enterococcus faecium VanB clinical isolate by broth microdilution method; type: functional

CCCCCCCCCCNCCN[C@@]1(C)C[C@H](O[C@H]2[C@H](Oc3c4cc5cc3Oc3ccc(cc3Cl)[C@@H](O)[C@@H](NC(=O)[C@@H](CC(C)C)NC)C(=O)N[C@@H](CC(N)=O)C(=O)N[C@H]5C(=O)N[C@H]3C(=O)N[C@H](C(=O)N[C@H](C(=O)O)c5cc(O)c(CNCP(=O)(O)O)c(O)c5-c5cc3ccc5O)[C@H](O)c3ccc(c(Cl)c3)O4)O[C@H](CO)[C@@H](O)[C@@H]2O)O[C@@H](C)[C@H]1O [TELAVANCIN]
log10CFU/ml (Enterococcus faecalis [1]): 1.2
MIC (Staphylococcus aureus [2]): 0.5 µg/mL (≈ 0.285 µM)
log10CFU/ml (Staphylococcus aureus [3]): 2.8
log10CFU/ml (Enterococcus faecalis [4]): 0.2
log10CFU/ml (Staphylococcus aureus [5]): 2.3
MIC (Streptococcus viridans): 0.015 µg/mL (≈ 0.00854 µM)
MIC50 (Streptococcus viridans): inactive
MIC90 (Streptococcus viridans): inactive
log10CFU/ml (Streptococcus agalactiae [6]): 2.7
log10CFU/ml (Streptococcus pyogenes [7]): 3.1
log10CFU/ml (Streptococcus agalactiae [8]): 1.8
log10CFU/ml (Streptococcus agalactiae [9]): 3.7
log10CFU/ml (Staphylococcus aureus [10]): 0.7
MIC50 (Streptococcus agalactiae [11]): 0.06 µg/mL (≈ 0.0342 µM)
MIC90 (Streptococcus agalactiae [11]): 0.06 µg/mL (≈ 0.0342 µM)
log10CFU/ml (Streptococcus agalactiae [12]): 1
log10CFU/ml (Streptococcus pneumoniae [13]): 3.4
log10CFU/ml (Enterococcus faecalis [14]): 0.5
log10CFU/ml (Staphylococcus aureus [15]): 3.4
log10CFU/ml (Streptococcus pneumoniae [16]): 3.4
log10CFU/ml (Enterococcus faecalis [17]): 1
log10CFU/ml (Staphylococcus aureus [18]): 0.8
log10CFU/ml (Staphylococcus aureus [19]): 3.4
MIC50 [20]: 0.5 µg/mL (≈ 0.285 µM)
MIC90 [20]: 1 µg/mL (≈ 0.57 µM)
log10CFU/ml (Streptococcus pyogenes [21]): 2.2
log10CFU/ml (Staphylococcus aureus [22]): 0.7
log10CFU/ml [23]: 3.3
log10CFU/ml (Staphylococcus aureus [24]): 2.7
log10CFU/ml (Streptococcus pyogenes [25]): 3.1
log10CFU/ml (Staphylococcus aureus [26]): 1.8
MIC50 [27]: 0.5 µg/mL (≈ 0.285 µM)
MIC90 [27]: 1 µg/mL (≈ 0.57 µM)
log10CFU/ml (Streptococcus pneumoniae [28]): 2.1
log10CFU/ml (Streptococcus pneumoniae [29]): 1.1
log10CFU/ml (Streptococcus pyogenes [30]): 0.6
log10CFU/ml [31]: 0.7
log10CFU/ml (Staphylococcus aureus [32]): 0.4
log10CFU/ml (Streptococcus pneumoniae [33]): 1.9
MIC50 (Enterococcus faecalis [34]): inactive
MIC90 (Enterococcus faecalis [34]): inactive
log10CFU/ml (Staphylococcus aureus [35]): 1.2
log10CFU/ml (Streptococcus pneumoniae [36]): 3.4
log10CFU/ml (Streptococcus agalactiae [37]): 0.6
log10CFU/ml (Streptococcus agalactiae [38]): 1
log10CFU/ml (Staphylococcus aureus [39]): 3.1
log10CFU/ml [40]: 2.7
log10CFU/ml (Staphylococcus aureus [41]): 0.3
MIC50 (Enterococcus faecium): 0.5 µg/mL (≈ 0.285 µM)
MIC90 (Enterococcus faecium): 2 µg/mL (≈ 1.14 µM)
